Results from ChEMBL document CHEMBL5303304, “EUbOPEN Chemogenomics Library - IncuCyte” (2023).

How the values were obtained:
Assay type in all cases: toxicity, cell-based
[1] = test system: Fibroblast; assay: Incucyte cell viability with human fibroblast; details: 10 µM, compound concentration 10 uM
[2] = test system: U2OS; assay: Incucyte cell viability with U2OS; details: human, 10 µM, compound concentration 10 uM
[3] = test system: HEK-293T; assay: Incucyte cell viability with HEK293T; details: human, 10 µM, compound concentration 10 uM
Further: unitless GR value; below 1 slowed growth and below 0 cell loss.

Structure (SMILES) | Growth Rate ([1]; 0 h, replicate number 1) | Growth Rate ([2]; 12 h, replicate number 1) | Growth Rate ([2]; 12 h, replicate number 2) | Growth Rate ([2]; 18 h, replicate number 1) | Growth Rate ([2]; 18 h, replicate number 2) | Growth Rate ([2]; 24 h, replicate number 1) | Growth Rate ([3]; 0 h, replicate number 2) | Growth Rate ([3]; 6 h, replicate number 2) | Growth Rate ([3]; 12 h, replicate number 1) | Growth Rate ([3]; 12 h, replicate number 2) | Growth Rate ([3]; 18 h, replicate number 1) | Growth Rate ([3]; 18 h, replicate number 2) | Growth Rate ([3]; 24 h, replicate number 1) | Growth Rate ([3]; 24 h, replicate number 2) | Growth Rate ([1]; 24 h, replicate number 1) | Growth Rate ([2]; 0 h, replicate number 2) | Growth Rate ([1]; 6 h, replicate number 2) | Growth Rate ([1]; 12 h, replicate number 2) | Growth Rate ([1]; 18 h, replicate number 1) | Growth Rate ([1]; 18 h, replicate number 2) | other results
CCN1CCN(Cc2ccc(Nc3ncc(F)c(-c4cc(F)c5nc(C)n(C(C)C)c5c4)n3)nc2)CC1 [ABEMACICLIB] | -1 | 0.83 | 0.9 | 0.62 | 0.56 | 0.63 | -0.03 | 0.78 | 0.31 | 0.37 | 0.35 | 0.44 | 0.54 | 0.44 |  |  |  |  |  |  | Growth Rate ([2]; 0 h, replicate number 1): -0.95; Growth Rate ([2]; 24 h, replicate number 2): 0.4; Growth Rate ([3]; 0 h, replicate number 1): -1; Growth Rate ([3]; 6 h, replicate number 1): 0.74
CC(C)(C)c1ccc2c(c1)CC[C@H]2NC(=O)Nc1cccc2[nH]ncc12 [ABT-102] | 0.1 |  | 0.84 |  | 0.91 |  | 1 | 0.6 | 0.26 | 0.71 | 0.39 | 0.54 | 0.22 | 0.48 | 0.79 | -0.93 |  |  |  |  | Growth Rate ([1]; 0 h, replicate number 2): 0.41; Growth Rate ([1]; 12 h, replicate number 1): -0.95; Growth Rate ([2]; 24 h, replicate number 2): 0.9; Growth Rate ([3]; 6 h, replicate number 1): 0.75
CC(=O)Oc1ccc2c(c1)[C@@]1(C)CCC[C@](C)(C(=O)OC(=O)[C@@]3(C)CCC[C@]4(C)c5cc(OC(C)=O)ccc5CC[C@@H]34)[C@@H]1CC2 [ACETYL PODOCARPIC ACID ANHYDRIDE] | 0.14 | 0.57 | 0.76 | 0.73 | 0.96 | 0.84 | 0.84 | 0.34 |  | 0.36 | 0.8 | 0.46 |  | 0.57 | 0.96 | 0.76 | 0.4 | 0.33 | 0.83 | 0.61 | Growth Rate ([1]; 24 h, replicate number 2): 0.62; Growth Rate ([2]; 0 h, replicate number 1): -0.55; Growth Rate ([2]; 6 h, replicate number 1): 0.6; Growth Rate ([2]; 6 h, replicate number 2): 0.92; Growth Rate ([3]; 0 h, replicate number 1): 0.44
N[C@H](C(=O)O)[C@@H]1CC(Cl)=NO1 [ACIVICIN] | -1 | 0.81 |  | 0.99 |  | 0.51 |  | 0.69 | 0.69 | 0.57 | 0.51 | 0.37 | 0.43 | 0.37 | 0.22 |  | -0.62 | 0.4 | 0.11 | 0.21 | Growth Rate ([1]; 6 h, replicate number 1): -0.24; Growth Rate ([1]; 12 h, replicate number 1): 0.08; Growth Rate ([1]; 24 h, replicate number 2): 0.56; Growth Rate ([3]; 0 h, replicate number 1): 0.17
COc1ccc(NC(=O)[C@@H]2C[C@H](C)CC[C@H]2C(C)C)cc1 [ACOLTREMON] | 0.31 | 0.93 |  |  |  | 0.94 | 0.02 |  |  |  |  |  |  |  |  | -0.89 | -0.34 | 0.74 | 0.98 | 0.61 | Growth Rate ([1]; 24 h, replicate number 2): 0.67; Growth Rate ([2]; 6 h, replicate number 1): -0.13
C=C(F)C(=O)N1CCN(c2nc(OC[C@@H]3CCCN3C)nc3c2CCN(c2cccc4cccc(Cl)c24)C3)C[C@@H]1CC#N [ADAGRASIB] | -1 | -0.94 | -0.11 | -0.89 | -0.27 | -0.76 |  | -0.86 | -0.28 | -0.57 | -0.25 | -0.46 | -0.21 | -0.38 | -0.3 | -0.94 | -0.86 | -0.18 | -0.26 | -0.27 | Growth Rate ([1]; 6 h, replicate number 1): -0.47; Growth Rate ([1]; 12 h, replicate number 1): -0.27; Growth Rate ([1]; 24 h, replicate number 2): -0.22; Growth Rate ([2]; 0 h, replicate number 1): -1; Growth Rate ([2]; 6 h, replicate number 1): -0.94; Growth Rate ([2]; 6 h, replicate number 2): 0.32; Growth Rate ([2]; 24 h, replicate number 2): -0.3; Growth Rate ([3]; 6 h, replicate number 1): -0.26
